The values below come from patent publication US7595313B2, “Nitric oxide donating diuretic compounds, compositions and methods of use” (NicOx, S.A., priority 2005, dated 2009).

Some results are limits rather than exact numbers.

The subject of data set [1] is Male Wistar rats. The experiment in a line: Determination of the diuresis (urine volume over 6 hours after oral dosing). Format: in vivo, rat. In a few lines: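 Male Wistar rats (180-200 g) in metabolic cages, fasted 18 h, water withdrawn 90 min before dosing. Compounds in 0.5% Methocel given p.o. at 30 or 3 mg/kg; urine volume collected over 6 h. Mean ±SEM, n=6 or 7.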

Setting [2] is: p.o. 3 mg/kg in 0.5% Methocel, male Wistar rats, 6 hours, mean ± SEM, n=6 or 7.
Setting [3] is: p.o. 3 mg/kg in 0.5% Methocel, male Wistar rats, 6 hours, mean ± SEM, n=6 or 7, 3 mg/kg.

`NS(=O)(=O)c1cc2c(cc1Cl)NCN(CCCC(CO[N+](=O)[O-])O[N+](=O)[O-])S2(=O)=O` (stereo not shown) [Example 43b, 2H-1,2,4-Benzothiadiazine-7-sulfonamide, 2-[4,5-bis(nitrooxy)pentyl]-6-chloro-3,4-dihydro-, 1,1-dioxide] showed a melting point of 49 to 53 °C. The “Urine collected in 6 hours (mL) (3 mg/kg)” value (from here on “Urine collected in 6 hours”) in data set [1] (rat, in vivo, po) stood at 3.0 ± 0.6 mL.

In turn, `CN(CCO[N+](=O)[O-])CC1Nc2cc(Cl)c(S(N)(=O)=O)cc2S(=O)(=O)N1` (stereo not shown) [Example 45, 2H-1,2,4-Benzothiadiazine-7-sulfonamide, 6-chloro-3,4-dihydro-3-[[methyl[2-(nitrooxy)ethyl]amino]methyl]-, 1,1-dioxide] displayed a melting point of 175 to 180 °C. Besides, the “Urine collected in 6 hours” value in data set [1] (setting [2]) worked out at 4.8 ± 1.3 mL.

Regarding `NS(=O)(=O)c1cc2c(cc1Cl)NC(CCCCCCO[N+](=O)[O-])NS2(=O)=O` (stereo not shown) [Example 47c, 2H-1,2,4-Benzothiadiazine-7-sulfonamide, 6-chloro-3,4-dihydro-3-[6-(nitrooxy)hexyl]-, 1,1-dioxide], the melting point was 161 °C. The “Urine collected in 6 hours” value in data set [1] (setting [2]) worked out at 8.3 ± 0.6 mL.

`NS(=O)(=O)c1cc2c(cc1Cl)NCN(CC[C@@H](CO[N+](=O)[O-])O[N+](=O)[O-])S2(=O)=O` [Example 48b, 2H-1,2,4-Benzothiadiazine-7-sulfonamide, 2-[(3S)-3,4-bis(nitrooxy)butyl]-6-chloro-3,4-dihydro-, 1,1-dioxide] gave a melting point of 162 to 163 °C. Also, in data set [1] (rat, in vivo, po), the “Urine collected in 6 hours” value was 4.8 ± 0.8 mL.

On to `NS(=O)(=O)c1cc2c(cc1Cl)NC(CC(=O)N(CCO[N+](=O)[O-])CCO[N+](=O)[O-])NS2(=O)=O` (stereo not shown) [Example 49e, 2H-1,2,4-Benzothiadiazine-3-acetamide, 7-(aminosulfonyl)-6-chloro-3,4-dihydro-N,N-bis[2-(nitrooxy)ethyl]-, 1,1-dioxide], for which the melting point lay in the range of 94 to 97 °C. For the same compound, the “Urine collected in 6 hours” value in data set [1] (rat, in vivo, po) is listed as 2.5 ± 0.5 mL.

For `NS(=O)(=O)c1cc2c(cc1Cl)NC(c1cc(CO[N+](=O)[O-])cc(CO[N+](=O)[O-])c1)NS2(=O)=O` (stereo not shown) [Example 50c, 2H-1,2,4-Benzothiadiazine-7-sulfonamide, 3-[3,5-bis[(nitrooxy)methyl]phenyl]-6-chloro-3,4-dihydro-, 1,1-dioxide], the melting point was in the range of 121 to 124 °C. Moreover, the “Urine collected in 6 hours” value in data set [1] (rat, in vivo, po) was determined as 3.3 ± 0.6 mL.

On to `NS(=O)(=O)c1cc2c(cc1Cl)N([N+](=O)[O-])CN(CCO[N+](=O)[O-])S2(=O)=O` [Example 52, 2H-1,2,4-Benzothiadiazine-7-sulfonamide, 6-chloro-3,4-dihydro-4-nitro-2-[2-(nitrooxy)ethyl]-, 1,1-dioxide], for which the melting point is 144 °C (dec.). In data set [1] (rat, in vivo, po), the “Urine collected in 6 hours” value worked out at 5.7 ± 0.8 mL.

In turn, `NS(=O)(=O)c1cc2c(cc1Cl)NCN(CCCC(=O)O)S2(=O)=O` [Example 53c, 2H-1,2,4-Benzothiadiazine-2-butanoic acid, 7-(aminosulfonyl)-6-chloro-3,4-dihydro-, 1,1-dioxide] came in with a melting point of 72 to 78 °C. In addition, the “Urine collected in 6 hours” value in data set [1] (setting [2]) worked out at 3.7 ± 0.4 mL.

On to `NS(=O)(=O)c1cc2c(cc1C(F)(F)F)NC(c1cc(CO[N+](=O)[O-])cc(CO[N+](=O)[O-])c1)NS2(=O)=O` (stereo not shown) [Example 55, 2H-1,2,4-Benzothiadiazine-7-sulfonamide, 3-[3,5-bis[(nitrooxy)methyl]phenyl]-3,4-dihydro-6-(trifluoromethyl)-, 1,1-dioxide], for which the melting point was > 113 °C (dec.). The “Urine collected in 6 hours” value in data set [1] (rat, in vivo, po) came out at 3.3 ± 0.4 mL.

Take `NS(=O)(=O)c1cc2c(cc1Cl)NC(CNC(=O)CN(CCO[N+](=O)[O-])CCO[N+](=O)[O-])NS2(=O)=O` (stereo not shown) [Example 57c, Acetamide, N-[[7-(aminosulfonyl)-6-chloro-3,4-dihydro-1,1-dioxido-2H-1,2,4-benzothiadiazin-3-yl]methyl]-2-[bis[2-(nitrooxy)ethyl]amino]-]: the melting point was 118 °C (dec.). For the same compound, in data set [1] (rat, in vivo, po), the “Urine collected in 6 hours” value came to 3.6 ± 0.6 mL.

`NS(=O)(=O)c1cc2c(cc1Cl)NCN(CCCCCCO[N+](=O)[O-])S2(=O)=O` [Example 58b, 2H-1,2,4-Benzothiadiazine-7-sulfonamide, 6-chloro-3,4-dihydro-2-[6-(nitrooxy)hexyl]-, 1,1-dioxide] gave a melting point of 158 to 160 °C. For the same compound, the “Urine collected in 6 hours” value in data set [1] (setting [2]) came to 6.3 ± 0.2 mL.

`NS(=O)(=O)c1cc2c(cc1Cl)NCN(CCCO)S2(=O)=O` [Example 59, 2H-1,2,4-Benzothiadiazine-7-sulfonamide, 6-chloro-3,4-dihydro-2-(3-hydroxypropyl)-, 1,1-dioxide] returned a melting point of 160 °C. The “Urine collected in 6 hours” value in data set [1] (setting [2]) is listed as 6.7 ± 0.6 mL.

Take `CN(CC1Nc2cc(Cl)c(S(N)(=O)=O)cc2S(=O)(=O)N1)C(=O)c1cc(CO[N+](=O)[O-])cc(CO[N+](=O)[O-])c1` (stereo not shown) [Example 65d, (5-{[{[7-(Aminosulfonyl)-6-chloro-1,1-dioxido-3,4-dihydro-2H-1,2,4-benzothiadiazin-3-yl]methyl}(methyl)amino]carbonyl}-1,3-phenylene)bis(methylene)dinitrate]: the melting point was 137 °C (dec.). Further, the “Urine collected in 6 hours” value in data set [1] (rat, in vivo, po) amounted to 4.6 ± 0.3 mL.

As to `NS(=O)(=O)c1cc2c(cc1Cl)NCN(C/C=C/CO[N+](=O)[O-])S2(=O)=O` [Example 67b, 2H-1,2,4-Benzothiadiazine-7-sulfonamide, 6-chloro-3,4-dihydro-2-[(2E)-4-(nitrooxy)-2-butenyl]-, 1,1-dioxide], the melting point was 160 to 162 °C (dec.). In addition, the “Urine collected in 6 hours” value in data set [1] (setting [2]) turned out to be 6.7 ± 0.6 mL.

Compound `NS(=O)(=O)c1cc2c(cc1Cl)NCN(CCCCOc1cc(CO[N+](=O)[O-])cc(CO[N+](=O)[O-])c1)S2(=O)=O` [Example 69b, 2H-1,2,4-Benzothiadiazine-7-sulfonamide, 2-[4-[3,5-bis[(nitrooxy)methyl]phenoxy]butyl]-6-chloro-3,4-dihydro-, 1,1-dioxide] returned a melting point of 65 to 67 °C. Also, in data set [1] (rat, in vivo, po), the “Urine collected in 6 hours” value amounted to 2.5 ± 0.5 mL.

Consider `NS(=O)(=O)c1cc2c(cc1Cl)NCN(CCCOc1cc(CO[N+](=O)[O-])cc(CO[N+](=O)[O-])c1)S2(=O)=O` [Example 70c, 2H-1,2,4-Benzothiadiazine-7-sulfonamide, 2-[3-[3,5-bis[(nitrooxy)methyl]phenoxy]propyl]-6-chloro-3,4-dihydro-, 1,1-dioxide], for which the melting point is 70 to 72 °C. Moreover, the “Urine collected in 6 hours” value in data set [1] (rat, in vivo, po) was found to be 3.3 ± 0.4 mL.

Take `NS(=O)(=O)c1cc2c(cc1Cl)NCN(CCOc1cc(CO[N+](=O)[O-])cc(CO[N+](=O)[O-])c1)S2(=O)=O` [Example 71c, 2H-1,2,4-Benzothiadiazine-7-sulfonamide, 2-[2-[3,5-bis[(nitrooxy)methyl]phenoxy]ethyl]-6-chloro-3,4-dihydro-, 1,1-dioxide]: the melting point was 72 to 75 °C. The “Urine collected in 6 hours” value in data set [1] (rat, in vivo, po) is 1.3 ± 0.6 mL.

For `NS(=O)(=O)c1cc2c(cc1Cl)NCN(CC(=O)N(CCCO[N+](=O)[O-])CCCO[N+](=O)[O-])S2(=O)=O` [Example 72b, 2H-1,2,4-Benzothiadiazine-2-acetamide, 7-(aminosulfonyl)-6-chloro-3,4-dihydro-N,N-bis[3-(nitrooxy)propyl]-, 1,1-dioxide], the melting point fell in the range of 157 to 160 °C. For the same compound, the “Urine collected in 6 hours” value in data set [1] (rat, in vivo, po) was found to be 1.8 ± 0.2 mL.

In turn, `NS(=O)(=O)c1cc2c(cc1Cl)NCN(CC[C@H](CO[N+](=O)[O-])O[N+](=O)[O-])S2(=O)=O` [Example 73b, 2H-1,2,4-Benzothiadiazine-7-sulfonamide, 2-[(3R)-3,4-bis(nitrooxy)butyl]-6-chloro-3,4-dihydro-, 1,1-dioxide] came in with a melting point of 158 to 162 °C. The “Urine collected in 6 hours” value in data set [1] (rat, in vivo, po) was determined as 3.8 ± 0.5 mL.

Turning to `CC1(C)CC(CC2Nc3cc(Cl)c(S(N)(=O)=O)cc3S(=O)(=O)N2)CC(C)(C)N1O` (stereo not shown) [Example 76b, 1-Piperidinyloxy, 4-[[7-(aminosulfonyl)-6-chloro-3,4-dihydro-1,1-dioxido-2H-1,2,4-benzothiadiazin-3-yl]methyl]-2,2,6,6-tetramethyl-], the melting point was in the range of 238 to 240 °C. Further, the “Urine collected in 6 hours” value in data set [1] (setting [3]) is on record as 2.2 ± 0.4 mL.

Compound `CC1(C)CC(CC2Nc3cc(Cl)c(S(N)(=O)=O)cc3S(=O)(=O)N2)CC(C)(C)N1O` (stereo not shown) [Example 77, 2H-1,2,4-Benzothiadiazine-7-sulfonamide, 6-chloro-3,4-dihydro-3-[(1-hydroxy-2,2,6,6-tetramethyl-4-piperidinyl)methyl]-, 1,1-dioxide] yielded a melting point of 174 to 176 °C. Moreover, the “Urine collected in 6 hours” value in data set [1] (setting [3]) stood at 2.3 ± 0.4 mL.

`NS(=O)(=O)c1cc2c(cc1Cl)NCN(C(CO)CO)S2(=O)=O` [Example 78b, 2H-1,2,4-Benzothiadiazine-7-sulfonamide, 6-chloro-3,4-dihydro-2-[2-hydroxy-1-(hydroxymethyl)ethyl]-, 1,1-dioxide]: the melting point lay in the range of 139 to 143 °C. Also, the “Urine collected in 6 hours” value in data set [1] (setting [2]) is on record as 2.7 ± 0.8 mL.

In turn, `NS(=O)(=O)c1cc2c(cc1Cl)NC(CCc1cc(CO[N+](=O)[O-])cc(CO[N+](=O)[O-])c1)NS2(=O)=O` (stereo not shown) [Example 80b, 2H-1,2,4-Benzothiadiazine-7-sulfonamide, 3-[2-[3,5-bis[(nitrooxy)methyl]phenyl]ethyl]-6-chloro-3,4-dihydro-, 1,1-dioxide] had a melting point of 101 to 104 °C. Further, the “Urine collected in 6 hours” value in data set [1] (rat, in vivo, po) came out at 3.9 ± 0.5 mL.

What is called melting point is the temperature of the solid-liquid transition.
